According to paper PMC6085350, “Small molecule inhibitors of RAS-effector protein interactions derived using an intracellular antibody fragment” (Nature Communications, 2018):

Target: T1, KRAS^G12V-GppNHp (Homo sapiens, UniProt P01116, G12V)
T1 construct: made in house; host or cells: E. coli (pGEX-2T; strain named only for the HRAS plasmids)
Test: SPR binding to KRAS G12V-GppNHp
Settings: 100 μM, run in triplicate
Protocol: A BIAcore T100 (GE Healthcare) was used to screen the fragment library for RAS binders. A polyclonal goat anti-GST antibody (GE Healthcare) was immobilized on a CM5 sensor chip (GE Healthcare) by the amine coupling method. To immobilize the antibody on CM5 chip, the chip was first activated by injecting 100 µl mixture of 0.2 M EDC (N-ethyl-N-(dimethylaminopropyl) carbodiimide hydrochloride) and 0.05 M NHS (N-hydroxysuccinimide) at 10 µl/min flow rate. Furthermore, 100 µg/ml anti-GST antibody in 10 mM sodium acetate, pH 5.0 was injected at 5 µl/min for 900 s and immobilized until 20,000 ~ 25,000 RU. After immobilization the chip was immediately inactivated by injecting 1 M ethanolamine, pH 8.5 at 10 µl/min for 600 s. The chip was kept running in the HBS buffer (GE Healthcare) comprising 10 mM HEPES, pH 8.0, 150 mM NaCl. Of all, 5 µg/ml recombinant GST, GST-HRAS^G12V-GTPγS or GST-HRAS^G12V-GDP proteins were injected into flow cell Fc4, Fc2 and Fc3, respectively for trapping through the immobilized anti-GST antibody. The GST-HRAS^G12V-GTPγS, GST-KRAS^G12V-GppNHpp, or GST-HRAS^G12V-GDP proteins were injected at 5 µl/min for 900 s and usually reached approximately 2000–2500 RU. The GST was injected at same flow rate until about 1200–1350 RU which is 0.54 times less than the GST-HRAS^G12V-GTPγS or GST-HRAS-GDP capture amounts, taking into consideration relative molecular weights (GST, 26KDa, GST-RAS, 48KDa, respectively). Before fragment library screening, the running buffer was replaced by 20 mM Tris, pH 8, 150 mM NaCl, 5 mM MgCl2, 5% DMSO. DMSO solvent correction curves were generated by injecting the running buffers with serial concentrations of DMSO ranging from 4.5 to 6%. […] The individual compounds were injected at 30 µl for 60 s at 30 µl/min flow rate over flow cells Fc1, Fc2, Fc3 and Fc4. The captured GST and GST-RAS were removed from the chip by rinsing with 40 µl 10 mM glycine-HCl, pH 2.1 at 20 µl/min flow rate after every 48 compounds sequential injection. The chip was regenerated by injecting new GST and GST-RAS proteins as described above.

T1 sequence (P01116 1-188 isoform P01116-2 G12V): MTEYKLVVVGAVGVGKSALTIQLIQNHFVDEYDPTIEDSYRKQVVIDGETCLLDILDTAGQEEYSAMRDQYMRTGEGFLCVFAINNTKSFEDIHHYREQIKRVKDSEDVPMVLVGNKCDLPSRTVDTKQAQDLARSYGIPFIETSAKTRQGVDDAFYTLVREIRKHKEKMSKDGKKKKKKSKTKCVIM

## O=C(NCC1COc2ccccc2O1)c1ccco1 (stereo not shown) [Abd-2]
  binding to KRAS^G12V-GppNHp (SPR): binds
